In the experiment the target is T1, mouse TRPC4β (Mus musculus, UniProt Q9QUQ5).
T1 construct: expressed in transfected cells; host or cells: HEK293 (ATCC CRL 1573), stably transfected, tetracycline-induced
T1 sequence (Q9QUQ5 1-890 isoform Q9QUQ5-2): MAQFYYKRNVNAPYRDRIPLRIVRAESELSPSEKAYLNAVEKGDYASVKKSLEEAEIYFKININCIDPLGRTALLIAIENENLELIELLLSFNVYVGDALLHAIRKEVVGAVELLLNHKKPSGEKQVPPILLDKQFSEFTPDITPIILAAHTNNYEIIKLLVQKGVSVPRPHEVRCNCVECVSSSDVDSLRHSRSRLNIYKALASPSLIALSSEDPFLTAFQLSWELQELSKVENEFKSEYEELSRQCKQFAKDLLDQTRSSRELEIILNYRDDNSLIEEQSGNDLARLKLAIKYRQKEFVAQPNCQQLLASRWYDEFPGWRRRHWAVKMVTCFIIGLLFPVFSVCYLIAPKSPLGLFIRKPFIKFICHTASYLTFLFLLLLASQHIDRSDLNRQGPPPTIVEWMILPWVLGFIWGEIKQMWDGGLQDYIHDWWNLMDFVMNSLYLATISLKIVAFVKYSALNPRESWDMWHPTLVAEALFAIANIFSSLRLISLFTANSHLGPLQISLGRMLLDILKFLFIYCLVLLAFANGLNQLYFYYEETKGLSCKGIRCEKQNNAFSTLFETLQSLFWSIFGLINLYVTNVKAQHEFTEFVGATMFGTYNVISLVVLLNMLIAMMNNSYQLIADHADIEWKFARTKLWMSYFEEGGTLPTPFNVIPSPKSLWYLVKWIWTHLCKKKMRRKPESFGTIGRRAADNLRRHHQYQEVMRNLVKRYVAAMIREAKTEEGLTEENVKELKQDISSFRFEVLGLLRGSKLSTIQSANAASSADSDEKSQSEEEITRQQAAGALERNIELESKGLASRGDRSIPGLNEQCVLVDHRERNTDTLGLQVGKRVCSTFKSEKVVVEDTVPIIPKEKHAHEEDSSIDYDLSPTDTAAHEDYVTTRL
Put plainly: FLIPR Ca2+ influx assay (Fluo-4) with 365/447 nm photoswitching, HEK293 stably expressing mouse TRPC4β. The format is cell-based. Particulars: for EC50: Z* = mostly-Z PSS under 365 nm LED, Fluo-4-loaded cells, read-out: Agonistic EC50 (365 nm) TRPC4. The text has this: We initially screened for the photoswitchability of activity in cells using a fluorometric imaging plate reader (FLIPR) calcium flux assay, with HEK293 cells stably expressing mouse TRPC4β or mouse TRPC5. Note, however, that the parallel-throughput FLIPR setup is limited to use fixed light-emitting diodes at 365 nm (good Z) and 447 nm (suboptimal E), which, combined with the slowness of the onset and recovery of the fluorescence readout for calcium, causes the FLIPR results to underestimate the reagents’ true speed, degree and completion of TRPC chromocontrol (shown later). […]
3 Cultured Cell Lines (primarily for Fig. 1 and Fig. 2)
3.1 FLIPR Ca2+ influx assay in cell suspensions.
We initially screened for photoswitchability of activity in cells, using a fluorometric imaging plate reader (FLIPR) calcium flux assay, with human embryonic kidney cell line HEK293 stably transfected to express mouse TRPC4β- or TRPC5-CFP fusion protein (HEKmTRPC4β-CFP / HEKmTRPC5-CFP, HEK293 obtained from ATCC CRL 1573). The FLIPR setup provides high-content data, but it is limited to using LED wavelengths of 365 nm (best-Z) and 447 nm (suboptimal-E), while imaging at 470 nm excitation (Fluo-4 AM as Ca2+ indicator; this imaging light counteracts both PSSs). Therefore, we expected the FLIPR results to under-estimate the true chromocontrol power accessible to the reagents.
Cells were grown to 70%-90% confluency in a 75-cm2 culture flask, trypsinised, washed and resuspended in BSA-containing (0.1%) HBS, and supplemented with 3 µM Fluo-4/AM. Stably TRPC-transfected cells were induced with tetracycline 24 h prior to the experiments.42,43 After incubation at 37°C for 30 min [Fluo-4 loading], cells were again washed, resuspended, and dispensed (40 µl/well) into black pigmented, clear-bottom 384-well plates (Greiner µ-clear). To image the Fluo-4 fluorescence during the application and photoswitching of test compounds, these plates were first mounted to a Tecan Fluent 480 (Tecan, Männedorf, Switzerland) liquid handling device, equipped with a 384-tip multichannel arm and a gripper arm. A custom-made plate-imaging device was used for photoswitching during fluorescence imaging, which features LED-based excitation modules (365 nm and 447 nm used here for photoswitching, and 470 nm used here for Fluo-4 readout) projected onto the bottom of the microwell plate, with a cooled scientific complementary metal oxide sensor (sCMOS) camera (Zyla 5.5, Andor, Belfast, UK) equipped with a Nokton 42.5 mm f/0.95 (Voigtlaender, Fürth, Germany) for detection. The LEDs were controlled with an Arduino device and constant current drivers (1 A for 365 and 470 nm LEDs; 3 A for 447 nm LED); detection was under the control of Micromanager 2.0 software. Compounds were serially diluted and applied to the Fluo-4-loaded cell suspensions inside this custom plate-imaging device, then fluorescence intensities (under 470 nm excitation) were continuously recorded during programmed illuminations e.g. with alternating 365 nm and 447 nm phases.
Concentration-response curves for the Z-isomers (channel activation) were then constructed from the maximal signals during 365 nm phases, after a suitable number of "priming" cycles to allow the system to reach stable performance (Supplementary Fig. 13).
All experiments were conducted as a minimum of 3 independent experiments with each experiment averaging data in technical duplicates.
Cellular TRPC4 photoswitching: HEK cell Ca2+ influx photomodulation […]
Supplementary Figure 12. […]

In the case of `Cn1c(=O)n(CCCO)c(=O)c2c1nc(Oc1ccc(/N=N/c3ccccc3)c(OC(F)(F)F)c1)n2Cc1ccc(Cl)cc1` [E-AzPico], where the note is “12 pM to […], before 365-nm illumination”, the “Effect of E isomer alone on TRPC4” value is on record as “no effect”.

As a reminder, the EC50 is the midpoint of the concentration-response curve. Consider `Cn1c(=O)n(CCCO)c(=O)c2c1nc(Oc1ccc(N=Nc3ccccc3)c(OC(F)(F)F)c1)n2Cc1ccc(Cl)cc1` [AzPico], for which the EC50 stood at 3 nM.

Turning to `Cn1c(=O)n(CCCO)c(=O)c2c1nc(Oc1ccc(/N=N\c3ccccc3)c(Cl)c1)n2Cc1ccc(Cl)cc1` [Z*-AzHC], the EC50 was above 1000 nM. The “Activity of Z isomer on TRPC4” value (into the micromolar range, 365 nm) was “completely inactive”.
